pIC50: −log10 of the molar value. Non-standard residues stand in square brackets, D forms with d. Residues, ends and D or L forms follow the SMILES beside them. *: point of attachment. Phe(4-CONH2) = NC(=O)c1ccc(C[C@H](N)C(=O)O)cc1; AEF = NCCOc1ccc(C[C@H](N)C(=O)O)cc1; Cit = NC(=O)NCCC[C@H](N)C(=O)O; NHPhenethyl = c1ccc(CCN*)cc1; hLys = NCCCCC[C@H](N)C(=O)O; Dab = NCC[C@H](N)C(=O)O; PhAc = O=C(Cc1ccccc1)*; NHBn = c1ccc(CN*)cc1; NHCH2CH2OH = OCCN*
assay: Inhibition of 6-His tagged-G4SG4 fused ZIKV NS2B (49 to 95 residues) R95A mutant-NS3 (1 to 170 residue) R29G mutant expressed in Escherichia coli BL21 (DE3) using Bz-Nle-K-RR-AMC substrate preincubated for 10 mins followed by substrate addition and measured after 30 mins by fluorescence assay; parameters: species or system Zika virus

Row | Compound | pIC50
1 | N=C(N)NCCC[C@H](NC(=O)[C@H](CCCCN)NC(=O)[C@H](CCCCN)NC(=O)Cc1ccccc1)C(=O)NCC1CCCCC1 | 5.74
2 | NCCCC[C@H](NC(=O)Cc1ccccc1)C(=O)N[C@@H](CCCCN)C(=O)N[C@H](C(=O)Nc1ccccc1)c1ccc(OCc2ccc(C(F)(F)F)cc2)cc1 | 5.47
3 | NCCCC[C@H](NC(=O)Cc1ccccc1)C(=O)N[C@@H](CCCCN)C(=O)N[C@H](C(=O)NCc1ccc2c(c1)OCO2)c1ccc(OCc2ccc(C(F)(F)F)cc2)cc1 | 7.22
4 | N=C(N)NCCC[C@H](NC(=O)[C@H](CC1CCNCC1)NC(=O)[C@H](CCCCN)NC(=O)Cc1ccccc1)C(N)=O | 4.91
5 | N=C(N)NCCC[C@H](NC(=O)c1cccs1)C(=O)N[C@@H](CCCCN)C(=O)NC(C(N)=O)c1ccc(-c2ccc(C(F)(F)F)cc2)cc1 (mixture of isomers) | 5.21
6 | NCCCC[C@H](NC(=O)Cc1ccccc1)C(=O)N[C@@H](CCCCN)C(=O)N[C@H](C(=O)NCc1ccccc1)c1ccccc1 | 6.26
7 | N=C(N)NCCC[C@H](NC(=O)[C@H](Cc1ccc(OCCN)cc1)NC(=O)[C@H](CCCCN)NC(=O)Cc1ccccc1)C(N)=O (PhAc-Lys-[AEF]-Arg-NH2) | < 4.00
8 | NCCCC[C@H](NC(=O)Cc1ccccc1)C(=O)N[C@@H](CCCCN)C(=O)N[C@H](C(=O)NCc1ccc(OCc2ccc(C(F)(F)F)cc2)cc1)c1ccccc1 | 6.85
9 | N=C(N)NCCC[C@H](NC(=O)c1cccs1)C(=O)N[C@@H](CCCCN)C(=O)N[C@@H](C(N)=O)c1ccc(OCc2ccc(C(F)(F)F)cc2)cc1 | 5.80
10 | N=C(N)NCCC[C@H](NC(=O)c1cccs1)C(=O)N[C@@H](CCCCN)C(=O)N[C@H](C(N)=O)c1ccc(OCCN2CCOCC2)cc1 | 4.66
11 | NCCCC[C@H](NC(=O)[C@H](CCCCN)NS(=O)(=O)Cc1ccccc1)C(=O)N[C@H](C(=O)NCc1ccccc1)c1ccc(OCc2ccc(C(F)(F)F)cc2)cc1 | 5.74
12 | N=C(N)NCCC[C@H](NC(=O)c1cccs1)C(=O)N[C@@H](CCCCN)C(=O)N[C@H](C(N)=O)c1ccc(OCc2ccccc2C(F)(F)F)cc1 | 5.15
13 | CN1CCC(CNC(=O)[C@H](CCCNC(=N)N)NC(=O)[C@H](CCCCN)NC(=O)[C@H](CCCCN)NC(=O)Cc2ccccc2)CC1 | 5.11
14 | NCCCC[C@H](NC(=O)Cc1ccccc1)C(=O)N[C@@H](CCCCN)C(=O)N[C@H](C(=O)NCc1cccnc1)c1ccc(OCc2ccc(C(F)(F)F)cc2)cc1 | 6.55
15 | N=C(N)NCCC[C@H](NC(=O)[C@H](CCCCN)NC(=O)[C@H](CCCCN)NC(=O)Cc1nccs1)C(N)=O | 4.64
16 | N=C(N)NCCC[C@H](NC(=O)[C@H](CCCCN)NC(=O)[C@H](CCCCN)NC(=O)Cc1cccnc1)C(N)=O | 5.35
17 | CCOc1ccc([C@H](NC(=O)[C@H](CCCCN)NC(=O)[C@H](CCCNC(=N)N)NC(=O)c2cccs2)C(N)=O)cc1 | 4.75
18 | N=C(N)NCCC[C@H](NC(=O)[C@H](CCCCN)NC(=O)[C@H](CCCCN)NC(=O)Cc1ccccc1)C(=O)NCc1cccnc1 | 4.98
19 | NCCCC[C@H](NC(=O)Nc1ccccc1)C(=O)N[C@@H](CCCCN)C(=O)N[C@H](C(=O)NCc1ccccc1)c1ccc(OCc2ccc(C(F)(F)F)cc2)cc1 | 6.80
20 | N=C(N)NCCC[C@H](NC(=O)[C@H](CCCCN)NC(=O)[C@H](CCCCN)NC(=O)C1(c2ccccc2)CC1)C(N)=O | 5.00

Row | Compound | pIC50
21 | N=C(N)NCCC[C@H](NC(=O)[C@H](CCN)NC(=O)[C@H](CCCCN)NC(=O)Cc1ccccc1)C(N)=O (PhAc-Lys-[Dab]-Arg-NH2) | 6.35
22 | CNC(=O)[C@@H](NC(=O)[C@H](CCCCN)NC(=O)[C@H](CCCCN)NC(=O)Cc1ccccc1)c1ccc(OCc2ccc(C(F)(F)F)cc2)cc1 | 5.55
23 | NCCCC[C@H](NC(=O)Cc1ccccc1)C(=O)N[C@@H](CCCCN)C(=O)N[C@H](C(=O)NCC1CCCCC1)c1ccc(OCc2ccc(C(F)(F)F)cc2)cc1 | 7.10
24 | N=C(N)NCCC[C@H](NC(=O)[C@H](CCCNC(N)=O)NC(=O)[C@H](CCCCN)NC(=O)Cc1ccccc1)C(N)=O (PhAc-Lys-[Cit]-Arg-NH2) | < 4.00
25 | N=C(N)NCCC[C@H](NC(=O)c1cccs1)C(=O)N[C@@H](CCCCN)C(=O)N[C@H](C(N)=O)c1ccc(OCC2CCCCC2)cc1 | 4.96
26 | N=C(N)NCCC[C@H](NC(=O)[C@H](CCCCN)NC(=O)[C@H](CCCCN)NC(=O)Cc1ccccc1)C(=O)NCc1ccccc1 (PhAc-Lys-Lys-Arg-NHBn) | 5.10
27 | CC(NC(=O)[C@H](CCCCN)NC(=O)[C@H](CCCNC(=N)N)NC(=O)c1cccs1)c1ccc(OCc2ccc(C(F)(F)F)cc2)cc1 (mixture of isomers) | 4.96
28 | CN(Cc1ccccc1)C(=O)[C@@H](NC(=O)[C@H](CCCCN)NC(=O)[C@H](CCCCN)NC(=O)Cc1ccccc1)c1ccc(OCc2ccc(C(F)(F)F)cc2)cc1 | 5.33
29 | N=C(N)NCCC[C@H](NC(=O)c1cccs1)C(=O)N[C@@H](CCCCN)C(=O)N[C@H](C(N)=O)c1ccc(OCCN2CCCCC2)cc1 | 5.52
30 | N=C(N)NCCC[C@H](NC(=O)[C@H](CCCCN)NC(=O)[C@H](CCCCN)NC(=O)Cc1cccs1)C(N)=O | 4.78
31 | NCCCC[C@H](NC(=O)Cc1ccccc1)C(=O)N[C@@H](CCCCN)C(=O)N[C@H](C(N)=O)c1ccc(OCc2ccc(C(F)(F)F)cc2)cc1 | 5.04
32 | NCCCC[C@H](NC(=O)Cc1ccccc1)C(=O)N[C@@H](CCCCN)C(=O)N[C@H](C(=O)NCc1ncco1)c1ccc(OCc2ccc(C(F)(F)F)cc2)cc1 | 5.82
33 | N=C(N)NCCC[C@H](NC(=O)c1cccs1)C(=O)N[C@@H](CCCCN)C(=O)N[C@H](C(N)=O)c1ccc(O)cc1 | 4.99
34 | N=C(N)NCCC[C@H](NC(=O)[C@H](Cc1ccc(C(N)=O)cc1)NC(=O)[C@H](CCCCN)NC(=O)Cc1ccccc1)C(N)=O (PhAc-Lys-[Phe(4-CONH2)]-Arg-NH2) | < 4.00
35 | N=C(N)NCCC[C@H](NC(=O)c1cccs1)C(=O)N[C@@H](CCCCN)C(=O)NC(C(N)=O)c1cccc(OCc2ccc(C(F)(F)F)cc2)c1 (mixture of isomers) | 5.19
36 | CN(C)CCOc1ccc([C@H](NC(=O)[C@H](CCCCN)NC(=O)[C@H](CCCNC(=N)N)NC(=O)c2cccs2)C(N)=O)cc1 | 5.26
37 | COc1ccc(CNC(=O)[C@@H](NC(=O)[C@H](CCCCN)NC(=O)[C@H](CCCCN)NC(=O)Cc2ccccc2)c2ccc(OCc3ccc(C(F)(F)F)cc3)cc2)cc1 | 6.89
38 | NCCCC[C@H](NC(=O)Cc1ccccc1)C(=O)N[C@@H](CCCCN)C(=O)N[C@H](C(=O)NCc1ccccc1)c1ccc(OCc2ccc(C(F)(F)F)cc2)cc1 | 7.05
39 | N=C(N)NCCC[C@H](NC(=O)[C@H](CCCCN)NC(=O)[C@H](CCCCN)NC(=O)Cc1ccccc1)C(=O)NCCc1ccccc1 (PhAc-Lys-Lys-Arg-NHPhenethyl) | 4.94
40 | N=C(N)NCCC[C@H](NC(=O)[C@H](CCCCN)NC(=O)[C@H](CCCCN)NC(=O)Cc1ccccc1)C(=O)NCCO (PhAc-Lys-Lys-Arg-NHCH2CH2OH) | 4.97

Row | Compound | pIC50
41 | NCCCC[C@H](NC(=O)c1ccccc1)C(=O)N[C@@H](CCCCN)C(=O)N[C@H](C(=O)NCc1ccccc1)c1ccc(OCc2ccc(C(F)(F)F)cc2)cc1 | 7.05
42 | N=C(N)NCCC[C@H](NC(=O)c1cccs1)C(=O)N[C@@H](CCCCN)C(=O)N[C@@H](C(=O)NCc1ccccc1)c1ccc(OCc2ccc(C(F)(F)F)cc2)cc1 | 6.04
43 | NCCCC[C@H](NC(=O)Cc1ccc(Cl)c(Cl)c1)C(=O)N[C@@H](CCCCN)C(=O)N[C@H](C(=O)NCc1ccccc1)c1ccc(OCc2ccc(C(F)(F)F)cc2)cc1 | 6.77
44 | N=C(N)NCCC[C@H](NC(=O)[C@H](CCCCN)NC(=O)[C@H](CCCCN)NC(=O)C(F)c1ccccc1)C(N)=O (mixture of isomers) | 5.31
45 | N=C(N)NCCC[C@H](NC(=O)Cc1ccccc1)C(=O)N[C@@H](CCCCN)C(=O)N[C@H](C(N)=O)c1ccc(OCc2ccc(C(F)(F)F)cc2)cc1 | 4.50
46 | NCCCC[C@H](NC(=O)Cc1ccccc1)C(=O)N[C@@H](CCCCN)C(=O)N[C@@H](C(=O)NCc1ccccc1)c1ccccc1 | 5.72
47 | NCCCC[C@H](NC(=O)Cc1ccccc1)C(=O)N[C@@H](CCCCN)C(=O)N[C@H](C(=O)NCCc1ccccc1)c1ccc(OCc2ccc(C(F)(F)F)cc2)cc1 | 6.21
48 | NCCCC[C@H](NC(=O)Cc1ccccc1)C(=O)N[C@@H](CCCCN)C(=O)N[C@H](C(=O)NCc1cc(Cl)cc(Cl)c1)c1ccccc1 | 6.49
49 | N=C(N)NCCC[C@H](NC(=O)c1cccs1)C(=O)N[C@@H](CCCCN)C(=O)N[C@H](C(N)=O)c1ccc(OCc2ncco2)cc1 | < 4.00
50 | N=C(N)NCCC[C@H](NC(=O)[C@H](CCCCCN)NC(=O)[C@H](CCCCN)NC(=O)Cc1ccccc1)C(N)=O (PhAc-Lys-[hLys]-Arg-NH2) | 5.57
51 | NCCCC[C@H](NC(=O)Oc1ccccc1)C(=O)N[C@@H](CCCCN)C(=O)N[C@H](C(=O)NCc1ccccc1)c1ccc(OCc2ccc(C(F)(F)F)cc2)cc1 | 6.08
52 | N=C(N)NCCC[C@H](NC(=O)[C@H](CCCCN)NC(=O)[C@H](CCCCN)NC(=O)Cc1ccccc1)C(=O)NCc1ccncc1 | 4.85
53 | NCCCC[C@H](NC(=O)Cc1ccc(Cl)c(Cl)c1)C(=O)N[C@@H](CCCCN)C(=O)N[C@H](C(=O)NCc1ccc(OCc2ccc(C(F)(F)F)cc2)cc1)c1ccccc1 | 6.77
54 | N=C(N)NCCC[C@H](NC(=O)c1cccs1)C(=O)N[C@@H](CCCCN)C(=O)N[C@H](C(N)=O)c1ccc(OCc2ccc3[nH]ncc3c2)cc1 | 5.28
55 | N=C(N)NCCC[C@H](NC(=O)[C@H](CCCCN)NC(=O)[C@H](CCCCN)NC(=O)Cc1ccc(-c2ccccc2)cc1)C(N)=O | 5.81
56 | N=C(N)NCCC[C@H](NC(=O)[C@H](CCCCN)NC(=O)[C@H](CCCCN)NC(=O)Cc1ccccc1)C(=O)O (PhAc-Lys-Lys-Arg-OH) | 4.39
57 | NCCCC[C@H](NC(=O)c1cccs1)C(=O)N[C@@H](CCCCN)C(=O)N[C@H](C(=O)NCc1ccc(OCc2ccc(C(F)(F)F)cc2)cc1)c1ccccc1 | 6.70
58 | N=C(N)NCCC[C@H](NC(=O)[C@H](CCCCN)NC(=O)[C@H](Cc1cccc(CN)c1)NC(=O)Cc1ccccc1)C(N)=O | 4.43
59 | N=C(N)NCCC[C@H](NC(=O)c1cccs1)C(=O)N[C@@H](CCCCN)C(=O)N[C@H](C(N)=O)c1ccc(OCc2ccc(C(F)(F)F)cc2)cc1 | 5.60

From ChEMBL document CHEMBL5154725, “SAR evolution towards potent C-terminal carboxamide peptide inhibitors of Zika virus NS2B-NS3 protease” (Bioorg Med Chem, 2022)
